Assay results reported in publication PMC6429262, “Design and Synthesis of Novel Anti-Proliferative Emodin Derivatives and Studies on their Cell Cycle Arrest, Apoptosis Pathway and Migration” (Molecules, 2019).

What was measured:
[1] = test system: MCF-7 cells; experiment: CellTiter-Glo Luminescent Cell Viability Assay, MCF-7; format: cell-based, human; settings: MCF-7 cells, 48 h, mean of three independent experiments
Procedure: (§1) The in vitro anti-proliferative activities of all the novel synthesized compounds were evaluated against HepG2 cells and MCF-7 cells by CellTiter-Glo® Luminescent Cell Viability Assay, using paclitaxel (a clinically used drug) as a positive control. Emodin (1) and compound 2 were also included for comparison.
(§2) HepG2 cells and MCF-7 cells were purchased from American Type Culture Collection (ATCC, Manassas, VA, USA). Cells were cultured in T75 flask (430641, Corning, New York, NY, USA), supplemented with high-glucose DMEM medium (Dulbecco’s modified Eagle’s medium, 11965-092, Gibco, New York, NY, USA) containing 10% Fetal bovine serum (FBS) and 1% penicillin (100 units/mL)-streptomycin (100 µg/mL) in a humidified incubator at 37 °C under 5% CO2 and 95% relative humidity (RH) atmosphere. The cells were harvested for metabolomics experiments using cell scrapers.
(§3) HepG2 cells and MCF-7 cells in 40 µL DMEM supplemented with 10% FBS were seeded at a density of 500 cells/well in 384-well cell culture plate (3570, Corning), respectively. After 24 h, the medium was substituted with fresh medium containing various sample solutions in DMSO (0.5%, v/v) at a dose range of 0.14–100 µM with 3-fold serial dilutions, and cells were cultured for another 48 h. Cells were cultured in medium without samples but 0.5% DMSO served as a control. All measurements were determined in triplicate for each treatment. After the sample treatment for 48 h, 20 µL CellTiter-Glo (G7573, Promega, Fitchburg, WI, USA) was added to each well containing cells and the contents were mixed for 2 min on an orbital shaker to induce cell lysis. The plates were then incubated at room temperature for 20 min to stabilize the luminescent signal. The luminescence was recorded on an Envision 2014 (Perkin Elmer, Waltham, MA, UAS). The IC50 values represented the samples’ concentrations required to inhibit 50% of cell proliferation and were calculated from a calibration curve by linear regression using GraphPad Prism 7.0 software (GraphPad Software, San Diego, CA, USA).

[2] = test system: HepG2 cells; experiment: CellTiter-Glo Luminescent Cell Viability Assay, HepG2; format: cell-based, human; settings: HepG2 cells, 48 h, mean of three independent experiments
Procedure: as §1, §2, §3

Structure (SMILES)	IC50 ([1]; Homo sapiens, MCF7, 48 h)	IC50 ([2]; Homo sapiens, HepG2, 48 h)	IC50 [1]	IC50 [2]
Cc1cc(O)c2c(c1)C(=O)c1cc(OCCO)cc(O)c1C2=O [Compound 2, 1,8-Dihydroxy-3-(2-hydroxyethoxy)-6-methylanthracene-9,10-dione]	86.4 ± 3.98 µM	64.1 ± 2.37 µM		
Cc1cc(O)c2c(c1)C(=O)c1cc(OCCOC(=O)CN)cc(O)c1C2=O [Compound 3a, 2-(2-(4,5-Dihydroxy-7-methyl-9,10-dioxo-9,10-dihydroanthracen-2-yloxy)ethoxy)-2-oxoethanaminium 2,2,2-trifluoroacetate]	66.9 ± 1.65 µM	22.7 ± 0.78 µM		
Cc1cc(O)c2c(c1)C(=O)c1cc(OCCOC(=O)[C@@H](N)CO)cc(O)c1C2=O [Compound 3d, (S)-1-(2-(4,5-Dihydroxy-7-methyl-9,10-dioxo-9,10-dihydroanthracen-2-yloxy)ethoxy)-3-hydroxy-1-oxopropan-2-aminium 2,2,2-trifluoroacetate]	34 ± 1.98 µM	12 ± 1.19 µM		
Cc1cc(O)c2c(c1)C(=O)c1cc(OCCOC(=O)C(C)(C)N)cc(O)c1C2=O [Compound 3j, 1-(2-(4,5-Dihydroxy-7-methyl-9,10-dioxo-9,10-dihydroanthracen-2-yloxy)ethoxy)-2-methyl-1-oxopropan-2-aminium 2,2,2-trifluoroacetate]	29.8 ± 1.78 µM	25.8 ± 5.28 µM		
Cc1cc(O)c2c(c1)C(=O)c1cc(OCCOC(=O)C3(N)CC3)cc(O)c1C2=O [Compound 3k, 1-((2-(4,5-Dihydroxy-7-methyl-9,10-dioxo-9,10-dihydroanthracen-2-yloxy)ethoxy)carbonyl)cyclopropan-aminium 2,2,2-trifluoroacetate]	> 100 µM	53.2 ± 8.7 µM		
Cc1cc(O)c2c(c1)C(=O)c1cc(OCCOC(=O)C3(N)CCC3)cc(O)c1C2=O [Compound 3l, 1-((2-(4,5-Dihydroxy-7-methyl-9,10-dioxo-9,10-dihydroanthracen-2-yloxy)ethoxy)carbonyl)cyclobutan-aminium 2,2,2-trifluoroacetate]	> 100 µM	67.49 ± 0.56 µM		
Cc1cc(O)c2c(c1)C(=O)c1cc(OCCOC(=O)C3(N)COC3)cc(O)c1C2=O [Compound 3m, 3-((2-(4,5-Dihydroxy-7-methyl-9,10-dioxo-9,10-dihydroanthracen-2-yloxy)ethoxy)carbonyl)oxetan-3-aminium 2,2,2-trifluoroacetate]	> 100 µM	> 100 µM		
Cc1cc(O)c2c(c1)C(=O)c1cc(OCCOC(=O)[C@H](N)c3ccccc3)cc(O)c1C2=O [Compound 3q, (R)-2-(2-(4,5-Dihydroxy-7-methyl-9,10-dioxo-9,10-dihydroanthracen-2-yloxy)ethoxy)-2-oxo-1-phenyl-ethanaminium 2,2,2-trifluoroacetate]	28.5 ± 1.74 µM	25.9 ± 0.48 µM		
Cc1cc(O)c2c(c1)C(=O)c1cc(OCCOC(=O)[C@@H](N)c3ccc(O)cc3)cc(O)c1C2=O [Compound 3t, (S)-2-(2-(4,5-Dihydroxy-7-methyl-9,10-dioxo-9,10-dihydroanthracen-2-yloxy)ethoxy)-1-(4-hydroxyphenyl)-2-oxoethanaminium 2,2,2-trifluoroacetate]	39.6 ± 1.97 µM	26.1 ± 1.44 µM		

Now those with a lower IC50 ([1]; Homo sapiens, MCF7, 48 h), led by results:

IC50 ([1]; Homo sapiens, MCF7, 48 h)	IC50 ([2]; Homo sapiens, HepG2, 48 h)	IC50 [1]	IC50 [2]	Structure (SMILES)
14.2 ± 0.23 µM	14.4 ± 1.09 µM			Cc1cc(O)c2c(c1)C(=O)c1cc(OCCOC(=O)[C@H](N)C(C)C)cc(O)c1C2=O [Compound 3e, (R)-1-(2-(4,5-Dihydroxy-7-methyl-9,10-dioxo-9,10-dihydroanthracen-2-yloxy)ethoxy)-3-methyl-1-oxobutan-2-aminium 2,2,2-trifluoroacetate]
16 ± 0.51 µM	12.4 ± 0.35 µM			Cc1cc(O)c2c(c1)C(=O)c1cc(OCCOC(=O)[C@@H](N)C(C)C)cc(O)c1C2=O [Compound 3f, (S)-1-(2-(4,5-Dihydroxy-7-methyl-9,10-dioxo-9,10-dihydroanthracen-2-yloxy)ethoxy)-3-methyl-1-oxobutan-2-aminium 2,2,2-trifluoroacetate]
16.1 ± 0.23 µM	15.9 ± 0.33 µM			Cc1cc(O)c2c(c1)C(=O)c1cc(OCCOC(=O)[C@@H](N)CC(C)C)cc(O)c1C2=O [Compound 3g, (S)-1-(2-(4,5-Dihydroxy-7-methyl-9,10-dioxo-9,10-dihydroanthracen-2-yloxy)ethoxy)-4-methyl-1-oxopentan-2-aminium 2,2,2-trifluoroacetate]
12.8 ± 1.05 µM	14.4 ± 0.27 µM			CCC(C)[C@H](N)C(=O)OCCOc1cc(O)c2c(c1)C(=O)c1cc(C)cc(O)c1C2=O (stereo partly drawn) [Compound 3h, (2S)-1-(2-(4,5-dihydroxy-7-methyl-9,10-dioxo-9,10-dihydroanthracen-2-yloxy)ethoxy)-3-methyl-1-oxo-pentan-2-aminium 2,2,2-trifluoroacetate]
17.2 ± 0.41 µM	17.2 ± 0.2 µM			CSCC[C@H](N)C(=O)OCCOc1cc(O)c2c(c1)C(=O)c1cc(C)cc(O)c1C2=O [Compound 3i, (S)-1-(2-(4,5-Dihydroxy-7-methyl-9,10-dioxo-9,10-dihydroanthracen-2-yloxy)ethoxy)-4-(methylthio)-1-oxobutan-2-aminium 2,2,2-trifluoroacetate]
23.5 ± 1.93 µM	12.5 ± 0.59 µM	18.5 ± 1.93 µM	17.5 ± 0.59 µM	Cc1cc(O)c2c(c1)C(=O)c1cc(OCCOC(=O)C3(N)CCCC3)cc(O)c1C2=O [Compound 3n, 1-((2-(4,5-Dihydroxy-7-methyl-9,10-dioxo-9,10-dihydroanthracen-2-yloxy)ethoxy)carbonyl)cyclopentan-aminium 2,2,2-trifluoroacetate]
17.6 ± 0.29 µM	17.6 ± 0.43 µM			Cc1cc(O)c2c(c1)C(=O)c1cc(OCCOC(=O)[C@H]3CCCN3)cc(O)c1C2=O [Compound 3o, (R)-2-((2-(4,5-Dihydroxy-7-methyl-9,10-dioxo-9,10-dihydroanthracen-2-yloxy)ethoxy)carbonyl)-pyrrolidinium 2,2,2-trifluoroacetate]
20 ± 1.82 µM	19 ± 0.6 µM			Cc1cc(O)c2c(c1)C(=O)c1cc(OCCOC(=O)[C@@H]3CCCN3)cc(O)c1C2=O [Compound 3p, (S)-2-((2-(4,5-Dihydroxy-7-methyl-9,10-dioxo-9,10-dihydroanthracen-2-yloxy)ethoxy)carbonyl)-pyrrolidinium 2,2,2-trifluoroacetate]
25.7 ± 0.61 µM	19.3 ± 1.08 µM			Cc1cc(O)c2c(c1)C(=O)c1cc(OCCOC(=O)[C@@H](N)c3ccccc3)cc(O)c1C2=O [Compound 3r, (S)-2-(2-(4,5-Dihydroxy-7-methyl-9,10-dioxo-9,10-dihydroanthracen-2-yloxy)ethoxy)-2-oxo-1-phenyl-ethanaminium 2,2,2-trifluoroacetate]
25.9 ± 1.09 µM	18.5 ± 0.55 µM			Cc1cc(O)c2c(c1)C(=O)c1cc(OCCOC(=O)[C@H](N)c3ccc(O)cc3)cc(O)c1C2=O [Compound 3s, (R)-2-(2-(4,5-Dihydroxy-7-methyl-9,10-dioxo-9,10-dihydroanthracen-2-yloxy)ethoxy)-1-(4-hydroxyphenyl)-2-oxoethanaminium 2,2,2-trifluoroacetate]
20.8 ± 0.32 µM	14.3 ± 1.04 µM			Cc1cc(O)c2c(c1)C(=O)c1cc(OCCOC(=O)[C@H](N)c3ccc(F)cc3)cc(O)c1C2=O [Compound 3u, (R)-2-(2-(4,5-Dihydroxy-7-methyl-9,10-dioxo-9,10-dihydroanthracen-2-yloxy)ethoxy)-1-(4-fluorophenyl)-2-oxoethanaminium 2,2,2-trifluoroacetate]
